From paper PMC7743076 (bioRxiv, 2021)
Several values for one entry are separate records, joined by “and”; a condition that tells them apart may be missing. Equal values may be shown once. Where a name gives a salt, the structure may show the parent alone.

Columns and labels:
[1] = tested on: B.1.617.1 pseudovirus, entry into 293T-ACE2-TMPRSS2 cells; type: cell-based, SARS-CoV-2; details: for IC50: read-out: IC50, B.1.617.1 PV transduction assay
[2] = target: SARS-CoV-2 RBD (RBD Wuhan-1) binding to ACE2 (Severe acute respiratory syndrome coronavirus 2, UniProt P0DTC2)
[3] = tested on: B.1.617.2 pseudovirus, entry into 293T-ACE2-TMPRSS2 cells; type: cell-based, SARS-CoV-2
[4] = tested on: SARS-CoV-2 variant pseudoviruses (D614G, P.1., B 1.1.7, B.1.429 and B1.351), entry into 293T-ACE2-TMPRSS2 cells; type: cell-based

| Compound | Inhibition of binding of RBD Wuhan-1 to ACE2 (in words) [2] | Increase of IC50 for B.1.617.2 versus B.1.617.1 [3] | other results |
| --- | --- | --- | --- |
| N[C@@H](CS)C(=O)O [L-cysteine] | – | – | Inhibition of B.1.617.1 PV entry (in words) [1]: intermediate potency |
| O=C(O)[C@@H](S)[C@@H](S)C(=O)O [Succimer, Dimercaptosuccinic acid] | relatively weak inhibitory effects | – | – |
| CC(C)(S)[C@@H](N)C(=O)O [Penicillamine] | relatively weak inhibitory effects | – | – |
| CC(C)(S)C(=O)N[C@@H](CS)C(=O)O [Bucillamine] | much stronger effects | approximately two-fold | – |
| NCCCNCCS [WR-1065] | much stronger effects | 3–15 fold | IC50 [1]: ~1000 µM; IC50 ([3]; read-out: IC50, B.1.617.2 PV transduction assay): 6000 µM and 5000 to 15000 µM |
| CO[C@H]1O[C@H](CS)[C@H](O)[C@H](O)[C@H]1O [TDG, methyl 6-thio-6-deoxy-α-D-galactopyranoside] | – | 3–15 fold | Potency higher than compounds with similarly high pKa values (NAC, Mesna) [1]: 5 fold |
| O=S(=O)(O)CCS [Mesna, 2-mercaptoethane sulfonate, sodium salt] | much stronger effects | – | IC50, B.1.617.2 PV transduction assay [3]: did not achieve an IC50 value at the doses tested |
| NCCS [Cysteamine] | much stronger effects | 3–15 fold | IC50 [1]: ~1000 µM; Entry of SARS-CoV-2 PV variants, cells pretreated [4]: not affected; Potency against variant PV entry (in words) [4]: less potent against the other variants tested |
